Experimental data published in the supplement of paper PMC13380429.

How the values were obtained:
Settings in all cases: 72 h
Caco-2 [1] = assay: cell viability relative to DMSO; higher = less toxic
Calu-3 [2] = assay: as above
HepG2 [3] = assay: as above
U2OS [4] = assay: as above
Vero E6 [5] = assay: as above
Caco-2 [6] = assay: relative viability EC50 (midpoint between 100% and the lowest measured viability); higher = less toxic
Calu-3 [7] = assay: as above
HepG2 [8] = assay: as above
U2OS [9] = assay: as above
Vero E6 [10] = assay: as above
Caco-2 [11] = assay: drug sensitivity score (DSS) for viability; higher = more toxic; extreme values may be limits of the assay
Calu-3 [12] = assay: as above
HepG2 [13] = assay: as above
U2OS [14] = assay: as above
Vero E6 [15] = assay: as above

| SMILES | cell viability (Caco-2 [1]; 1 nM) | cell viability (Caco-2 [1]; 10 nM) | cell viability (Caco-2 [1]; 100 nM) | cell viability (Caco-2 [1]; 1000 nM) | cell viability (Caco-2 [1]; 10000 nM) | cell viability (Calu-3 [2]; 1 nM) | cell viability (Calu-3 [2]; 10 nM) | cell viability (Calu-3 [2]; 100 nM) | cell viability (Calu-3 [2]; 1000 nM) | cell viability (Calu-3 [2]; 10000 nM) | cell viability (HepG2 [3]; 1 nM) | cell viability (HepG2 [3]; 10 nM) | cell viability (HepG2 [3]; 100 nM) | cell viability (HepG2 [3]; 1000 nM) | cell viability (HepG2 [3]; 10000 nM) | cell viability (U2OS [4]; 1 nM) | cell viability (U2OS [4]; 10 nM) | cell viability (U2OS [4]; 100 nM) | cell viability (U2OS [4]; 1000 nM) | cell viability (U2OS [4]; 10000 nM) | cell viability (Vero E6 [5]; 1 nM) | cell viability (Vero E6 [5]; 10 nM) | cell viability (Vero E6 [5]; 100 nM) | cell viability (Vero E6 [5]; 1000 nM) | cell viability (Vero E6 [5]; 10000 nM) | relative viability EC50 (Caco-2 [6]) | relative viability EC50 (Calu-3 [7]) | relative viability EC50 (HepG2 [8]) | relative viability EC50 (U2OS [9]) | relative viability EC50 (Vero E6 [10]) | drug sensitivity score (Caco-2 [11]) | drug sensitivity score (Calu-3 [12]) | drug sensitivity score (HepG2 [13]) | drug sensitivity score (U2OS [14]) | drug sensitivity score (Vero E6 [15]) |
| --- | --- | --- | --- | --- | --- | --- | --- | --- | --- | --- | --- | --- | --- | --- | --- | --- | --- | --- | --- | --- | --- | --- | --- | --- | --- | --- | --- | --- | --- | --- | --- | --- | --- | --- | --- |
| CCN(C(C)=O)c1cccc(-c2ccnc3c(C#N)cnn23)c1 [ZALEPLON] | 96.6% | 102% | 100% | 104% | 96.4% | 93.9% | 96.7% | 96.7% | 86.1% | 90.7% | 90.5% | 95.6% | 91% | 105% | 89.3% | 105% | 104% | 102% | 103% | 96% | 97.5% | 99.2% | 99.3% | 101% | 95% | > 10 µM | > 10 µM | > 10 µM | > 10 µM | > 10 µM | 0 | 0 | 0 | 0 | 0 |
| CC(=O)Oc1ccccc1C(=O)Oc1ccccc1C(=O)O [acetylsalicylsalicylic-acid] | 103% | 96.1% | 101% | 101% | 103% | 95.3% | 78.8% | 99.3% | 97% | 91.9% | 100% | 106% | 100% | 108% | 92.4% | 96.1% | 96.8% | 103% | 104% | 106% | 101% | 101% | 102% | 95.9% | 99.9% | > 10 µM | > 10 µM | > 10 µM | > 10 µM | > 10 µM | 0 | 0 | 0 | 0 | 0 |
| CSCC[C@H](NC(=O)[C@H](CC(C)C)NC(=O)[C@@H](Cc1c[nH]c2ccccc12)NC(=O)[C@H](Cc1ccccc1)N(C)C(=O)[C@@H](Cc1c[nH]c2ccccc12)NC(=O)[C@@H](N)CCCNC(=N)N)C(N)=O [antagonist-g] | 93.8% | 89.7% | 96.3% | 75.6% | 122% | 105% | 91% | 98.8% | 89.3% | 111% | 104% | 98.1% | 103% | 84.8% | 105% | 99.9% | 93.1% | 97.7% | 97% | 97.4% | 96.2% | 97% | 102% | 85.6% | 96.3% | > 10 µM | > 10 µM | > 10 µM | > 10 µM | > 10 µM | 0 | 0 | 0 | 0 | 0 |
| CCCC1(CCC)CCC2(CCN(CCCN(CC)CC)C2)CC1 [atiprimod] | 99.2% | 94.7% | 98.4% | 94.9% | 20.7% | 103% | 103% | 101% | 86.9% | 0.7% | 91.1% | 94.8% | 93.2% | 83.3% | 0% | 101% | 105% | 95.8% | 96.1% | 14.6% | 97.9% | 98.7% | 101% | 92.1% | 16.9% | 2.66 µM | 2.1 µM | 1.89 µM | 2.82 µM | 2.38 µM | 5.1 | 7.7 | 8.3 | 5.3 | 5.9 |
| NC(=O)[C@@H]1CC[C@@H]2CN1C(=O)N2OS(=O)(=O)O [avibactam] | 101% | 92.5% | 92.5% | 95.7% | 92.7% | 94.8% | 81.7% | 104% | 91.3% | 104% | 114% | 109% | 90.9% | 98.4% | 97.8% | 97.2% | 94.6% | 101% | 96.9% | 98.7% | 95% | 96.5% | 97.6% | 97.1% | 98.6% | > 10 µM | > 10 µM | > 10 µM | > 10 µM | > 10 µM | 0 | 0 | 0 | 0 | 0 |
| COc1ccc2cc3[n+](cc2c1OC)CCc1cc2c(cc1-3)OCO2 [berberine] | 110% | 106% | 97.4% | 86.9% | 82.5% | 94.3% | 101% | 105% | 101% | 97.3% | 99.8% | 103% | 87.7% | 92.1% | 30.6% | 106% | 96.8% | 103% | 93.7% | 77.2% | 107% | 93% | 95.3% | 107% | 96.1% | > 10 µM | > 10 µM | 2.23 µM | > 10 µM | > 10 µM | 1.5 | 0 | 5.1 | 1.6 | 0 |
| Brc1c(NC2=NCCN2)ccc2nccnc12 [brimonidine] | 107% | 97.2% | 108% | 90.7% | 103% | 103% | 98.1% | 88.1% | 97.2% | 103% | 98.1% | 97.6% | 96.7% | 107% | 105% | 100% | 105% | 99.6% | 96.6% | 106% | 99% | 102% | 97.5% | 100% | 102% | > 10 µM | > 10 µM | > 10 µM | > 10 µM | > 10 µM | 0 | 0 | 0 | 0 | 0 |
